≈ marks a conversion by molar mass, not a printed value.
Legend:
Citrobacter = assay: MIC in agar, Citrobacter; type: cell-based; conditions: Isosensitest agar, 10^4 CFU, 24 h, 37° C., read-out: MIC, G = Citrobacter
Protocol: (§1) The antibacterial activity (minimum inhibiting concentration, MIC) of the compounds according to the invention has been determined in agar, by adding the compound under evaluation at concentrations of from 0.1 to 100 meg/ml by means of a "multipoint inoculator" (Denley Techn. Ltd., England); the medium used was Isosensitest agar (Oxoid); the bacterial inoculate was 10^4 colony forming unity (CFU) per inoculation point. The reading of the results was done after 24 hour-incubation in thermostat at 37° C.
(§2) The MIC was defined as the lowest concentration of chemotherapeutic agent still capable of totally inhibiting the growth of bacteria, as detected from a lack of colony development in the inoculation point.
(§3) The microorganisms used for evaluating the activity of the specific compounds have been: Escherichia coli, Klebsiella P., Enterobacter, Serratia, Citrobacter, Proteus (+), Salmonella, Pseudomonas, Staphylococcus. All the compounds according to the present invention are provided with antibacterial activity against one or more microorganism(s) among those above mentioned. Some of such compounds are absorbed after having been administered orally to the animals, and are particularly useful as disinfectants of the urinary tract in that they are excreted in a high percentage (50-70% over 24 hours after the administration of 50 mg/kg per os) as such, and in metabolic active form, through the urine.

[1] = plasma levels by HPLC after intraperitoneal and oral administration to rats; type: in vivo; conditions: rat; for concentration at 0.5 h: 0.50 h; for concentration at 0.5 h / concentration at 1 h / concentration at 2 h / concentration at 4 h / concentration at 8 h / concentration at 15 h: read-out: Plasma level
Protocol: We give hereinafter in Table 2 the haematic levels of compound (h) as measured in plasma by HPLC. Each value is the average of three tested rats.
More precisely in FIG. 1 the plasma levels in rats versus the time, are reported, after i.p. administration of 10 mg/kg and 25 mg/kg of compound (h), while in FIG. 2 the plasma levels are reported of compound (h) in rats, versus the time, after oral administration of 25, 50 and 100 mg/kg of said compound.

Enterobacter = assay: MIC in agar, Enterobacter; type: cell-based; conditions: Isosensitest agar, 10^4 CFU, 24 h, 37° C., read-out: MIC, F = Enterobacter
Protocol: as §1, §2, §3

bacteria [2] = assay: antibacterial characteristics tested in vivo
[3] = preliminary pharmacokinetic tests in dogs, oral; type: in vivo; conditions: dog, 20 mg/kg per os
Source text: Preliminary tests performed in dogs with the compound (h) have given still better results than the tests performed in rats.

bacteria [4] = assay: antibacterial activity in vitro, overall; type: cell-based; conditions: in vitro, Table 1
Protocol: as §1, §2, §3

Klebsiella pneumoniae = assay: MIC in agar, Klebsiella pneumoniae; type: cell-based; conditions: Isosensitest agar, 10^4 CFU, 24 h, 37° C., read-out: MIC, E = Klebsiella pneumoniae
Protocol: as §1, §2, §3
E = Klebsiella pneumoniae

Staphylococcus aureus = assay: MIC in agar, Staphylococcus aureus; type: cell-based; conditions: Isosensitest agar, 10^4 CFU, 24 h, 37° C.
Protocol: as §1, §2, §3

[5] = tissue levels by HPLC after oral administration to rats; type: in vivo; conditions: rat; for concentration at 0.5 h / concentration at 1 h / concentration at 2 h / concentration at 4 h / concentration at 8 h / concentration at 15 h: 50 mg/kg oral; for Cmax: po
Pseudomonas aeruginosa = assay: MIC in agar, Pseudomonas aeruginosa; type: cell-based; conditions: Isosensitest agar, 10^4 CFU, 24 h, 37° C., read-out: MIC, B = Pseudomonas aeruginosa
Protocol: as §1, §2, §3
B = P udomonas aeruginosa

Escherichia coli (981) = assay: MIC in agar, Escherichia coli (981); type: cell-based; conditions: Isosensitest agar, 10^4 CFU, 24 h, 37° C.
Protocol: as §1, §2, §3
A = Escherichia coli (981)

[6] = test system: Proteus Morgani (indole +); assay: MIC in agar, Proteus Morgani (indole +); type: cell-based; conditions: Isosensitest agar, 10^4 CFU, 24 h, 37° C.; read-out: MIC, D = Proteus Morgani (indole +)
Protocol: as §1, §2, §3
D = Proteus Morgani (indole +)

in vivo = conditions: rat, po
Protocol: In Table 4 the percentage of urinary excretion of compound (h) is reported, as measured in the 24 hours successive to oral administration of the same to rats.
Each value is the average of three tested rats.
The tests have been performed in comparison with Ofloxacin, a well known antibacterial compound. The amount of excreted product has been determined with microbiological analysis, by using Klebsiella Pneumoniae as the testing microorganism.

[7] = heart, read-out: Tissue level, heart
[8] = kidney, read-out: Tissue level, kidney
[9] = liver, read-out: Tissue level, liver
[10] = plasma, read-out: Tissue levels table, plasma

CN1CCN(c2c(F)cc3c(=O)c(C(=O)O)cn4c3c2SCC4)CC1 [Compound (h), 9-Fluoro-10[N-(4'-methyl)-piperazinyl]-7-oxo-2,3-dihydro-7H-pyrido[1,2,3 de][1,4]benzothiazine-6-carboxylic acid]
MIC (Citrobacter): 1.56 µg/mL (≈ 4.29 µM) | concentration at 0.5 h ([1]; plasma, ip, 10 mg/kg i.p.): 2700 ng/mL | concentration at 1 h ([1]; plasma, ip, 10 mg/kg i.p.): 2530 ng/mL | concentration at 2 h ([1]; plasma, ip, 10 mg/kg i.p.): 2170 ng/mL | concentration at 4 h ([1]; plasma, ip, 10 mg/kg i.p.): 1830 ng/mL | concentration at 8 h ([1]; plasma, ip, 10 mg/kg i.p.): 1630 ng/mL | concentration at 0.5 h ([1]; plasma, ip, 25 mg/kg i.p.): 8350 ng/mL | concentration at 1 h ([1]; plasma, ip, 25 mg/kg i.p.): 6290 ng/mL | concentration at 2 h ([1]; plasma, ip, 25 mg/kg i.p.): 6440 ng/mL | concentration at 4 h ([1]; plasma, ip, 25 mg/kg i.p.): 5010 ng/mL | concentration at 8 h ([1]; plasma, ip, 25 mg/kg i.p.): 3720 ng/mL | concentration at 0.5 h ([1]; plasma, po, 25 mg/kg os): 5330 ng/mL | concentration at 1 h ([1]; plasma, po, 25 mg/kg os): 7300 ng/mL | concentration at 2 h ([1]; plasma, po, 25 mg/kg os): 5670 ng/mL | concentration at 4 h ([1]; plasma, po, 25 mg/kg os): 3600 ng/mL | concentration at 8 h ([1]; plasma, po, 25 mg/kg os): 3270 ng/mL | concentration at 15 h ([1]; plasma, po, 25 mg/kg os): 2730 ng/mL | concentration at 0.5 h ([1]; plasma, po, 50 mg/kg os): 8750 ng/mL | concentration at 1 h ([1]; plasma, po, 50 mg/kg os): 10100 ng/mL | concentration at 2 h ([1]; plasma, po, 50 mg/kg os): 9950 ng/mL | concentration at 4 h ([1]; plasma, po, 50 mg/kg os): 6370 ng/mL | concentration at 8 h ([1]; plasma, po, 50 mg/kg os): 4950 ng/mL | concentration at 15 h ([1]; plasma, po, 50 mg/kg os): 4290 ng/mL | concentration at 0.5 h ([1]; plasma, po, 100 mg/kg os): 12500 ng/mL | concentration at 1 h ([1]; plasma, po, 100 mg/kg os): 20600 ng/mL | concentration at 2 h ([1]; plasma, po, 100 mg/kg os): 22200 ng/mL | concentration at 4 h ([1]; plasma, po, 100 mg/kg os): 15900 ng/mL | concentration at 8 h ([1]; plasma, po, 100 mg/kg os): 13000 ng/mL | concentration at 15 h ([1]; plasma, po, 100 mg/kg os): 6220 ng/mL | half-life ([1]; plasma, deduced from Table 2, read-out: half-life time (converted)): 10 h | absorption per os and i.p. [1]: quickly absorbed | plasma levels induced [1]: high and long-lasting levels both in the plasma and in the various organs | MIC (Enterobacter): < 0.39 µg/mL | in vivo antibacterial characteristics (bacteria [2]): systemic antibacterial compound having long-lasting activity | plasma levels compared with rats [3]: sharply higher plasma levels | half-life ([3]; plasma, po): 24 h | Cmax ([3]; plasma, po, read-out: peak plasma level): 8000 ng/mL | anti-bacterial activity in vitro (bacteria [4]): very good and comparable anti-bacterial activity | MIC (Klebsiella pneumoniae): < 0.39 µg/mL | MIC (Staphylococcus aureus): 0.78 µg/mL (≈ 2.15 µM) | concentration at 0.5 h [5, 7]: 20000 ng/mL | concentration at 1 h [5, 7]: 31400 ng/mL | concentration at 2 h [5, 7]: 21000 ng/mL | concentration at 4 h [5, 7]: 18100 ng/mL | concentration at 8 h [5, 7]: 9930 ng/mL | concentration at 15 h [5, 7]: 5350 ng/mL | concentration at 0.5 h [5, 8]: 32600 ng/mL | concentration at 1 h [5, 8]: 61200 ng/mL | concentration at 2 h [5, 8]: 50600 ng/mL | concentration at 4 h [5, 8]: 42400 ng/mL | concentration at 8 h [5, 8]: 17800 ng/mL | concentration at 15 h [5, 8]: 7950 ng/mL | concentration at 0.5 h [5, 9]: 63500 ng/mL | concentration at 1 h [5, 9]: 80400 ng/mL | concentration at 2 h [5, 9]: 58100 ng/mL | concentration at 4 h [5, 9]: 34100 ng/mL | concentration at 8 h [5, 9]: 21600 ng/mL | concentration at 15 h [5, 9]: 11300 ng/mL | concentration at 0.5 h [5, 10]: 8750 ng/mL | concentration at 1 h [5, 10]: 10100 ng/mL | concentration at 2 h [5, 10]: 9950 ng/mL | concentration at 4 h [5, 10]: 6370 ng/mL | concentration at 8 h [5, 10]: 4950 ng/mL | concentration at 15 h [5, 10]: 4290 ng/mL | Cmax ([5]; heart, read-out: mean tissue level at the moment of peak, heart): 31400 ng/mL | Cmax ([5]; liver, read-out: mean tissue level at the moment of peak, liver (first of two values printed for liver)): 61200 ng/mL | Cmax ([5]; liver, read-out: mean tissue level at the moment of peak, liver (second of two values printed for liver)): 80400 ng/mL | presence in brain ([5]; oral): No presence | Kp ([5]; oral, various organs, read-out: ratio of organ concentration with respect to the concentration in plasma): > 3 | Cmax ([5]; plasma, read-out: mean level at the moment of peak, plasma): 10100 ng/mL | MIC (Pseudomonas aeruginosa): > 50 µg/mL | MIC (Escherichia coli (981)): 0.78 µg/mL (≈ 2.15 µM) | MIC [6]: 1.56 µg/mL (≈ 4.29 µM) | dose excreted at 24 h (in vivo; 20 mg/kg): 77.3 ± 6.81% | dose excreted at 24 h (in vivo; 50 mg/kg): 73 ± 4.58%

Source: US4684647A, “Anti-bacterial pyrido-benzothiazine derivative and pharmaceutical composition therefor” (priority 1984, dated 1987)
